Data: patent US10183013B2, “Cyclic sulfonamide containing derivatives as inhibitors of hedgehog signaling pathway” (NantBioScience, Inc., priority 2012, dated 2019)

Test system: Hedgehog signalling (Gli-bla NIH3T3 cells, mShh stimulated)
Test: Hedgehog signalling inhibition assay (Gli-Bla reporter assay in NIH 3T3 cells); further: mShh 400 ng/ml
Type: cell-based
Conditions: Mus musculus, NIH3T3, 24 h; read-out: EC50
Method: Hedgehog signalling inhibition assays. The following table 2 represents the average EC50 values for particular compounds of the inventions. Gli-bla NIH3T3 cells (7500 cells/well) were plated the day prior to the assay in a 384-well and 96-format in complete growth medium. […] Cells were stimulated with mShh for 24 hours and then loaded with LiveBLAzer™-FRET B/G Substrate for 3 hours. Emission values at 460 nm and 530 nm were obtained using a standard fluorescence plate reader and the 460/530 Ratios plotted for each treatment (n=4 for each data point).
J. Cancer, 2011, 30(7):472-81).

SMILES: O=C(Nc1ccc(Cl)c(-c2ccccn2)c1)c1ccc(N2CCCS2(=O)=O)cc1 [Example 84]
- EC50: < 10 nM

SMILES: O=C(Nc1ccc(Cl)c(-c2ccccn2)c1)c1ccc(N2CCOCS2(=O)=O)cc1Cl [Example 85, 2-chloro-N-(4-chloro-3-(pyridin-2-yl)phenyl)-4-(3,3-dioxido-1,3,4-oxathiazinan-4-yl)benzamide]
- EC50: < 10 nM

SMILES: O=C(Nc1ccc(Cl)c(-c2nccc3ccccc23)c1)c1ccc(N2CCCS2(=O)=O)cc1 [Example 86]
- EC50: 28000 nM

SMILES: O=C(Nc1ccc(Cl)c(-c2ccc3ccccc3n2)c1)c1ccc(N2CCCS2(=O)=O)cc1 [Example 87]
- EC50: 3000 nM

SMILES: O=C(Nc1ccc(Cl)c(-c2ccc3ncccc3n2)c1)c1ccc(N2CCCS2(=O)=O)cc1 [Example 88]
- EC50: 10000 nM

SMILES: O=C(Nc1ccc(Cl)c(-c2ncc3ccccc3n2)c1)c1ccc(N2CCCS2(=O)=O)cc1 [Example 89]
- EC50: 14000 nM

SMILES: O=C(Nc1ccc(Cl)c(-c2ccc3cnccc3n2)c1)c1ccc(N2CCCS2(=O)=O)cc1 [Example 90]
- EC50: 12000 nM

SMILES: O=C(Nc1ccc(Cl)c(-c2ccc3ccccc3n2)c1)c1ccc(N2CCCCS2(=O)=O)cc1 [Example 93]
- EC50: < 10 nM

SMILES: O=C(Nc1ccc(Cl)c(-c2nccc3ccccc23)c1)c1ccc(N2CCCCS2(=O)=O)cc1 [Example 94]
- EC50: < 10 nM

SMILES: O=C(Nc1ccc(Cl)c(-c2ncc3ccccc3n2)c1)c1ccc(N2CCCCS2(=O)=O)cc1 [Example 95]
- EC50: < 10 nM

SMILES: O=C(Nc1ccc(Cl)c(-c2ccc3cnccc3n2)c1)c1ccc(N2CCCCS2(=O)=O)cc1 [Example 96]
- EC50: < 10 nM

SMILES: O=C(Nc1ccc(Cl)c(-c2ccc3ncccc3n2)c1)c1ccc(N2CCCCS2(=O)=O)cc1 [Example 97]
- EC50: < 10 nM

SMILES: O=C(Nc1ccc(Cl)c(-c2nccc3ccccc23)c1)c1ccc(N2CCCCS2(=O)=O)cc1Cl [Example 98]
- EC50: < 10 nM

SMILES: O=C(Nc1ccc(Cl)c(-c2ccc3ccccc3n2)c1)c1ccc(N2CCCCS2(=O)=O)cc1Cl [Example 99]
- EC50: < 10 nM

SMILES: O=C(Nc1ccc(Cl)c(-c2ncc3ccccc3n2)c1)c1ccc(N2CCCCS2(=O)=O)cc1Cl [Example 100]
- EC50: < 10 nM

SMILES: O=C(Nc1ccc(Cl)c(-c2ccc3cnccc3n2)c1)c1ccc(N2CCCCS2(=O)=O)cc1Cl [Example 101]
- EC50: < 10 nM

SMILES: O=C(Nc1ccc(Cl)c(-c2ccc3ncccc3n2)c1)c1ccc(N2CCCCS2(=O)=O)cc1Cl [Example 102]
- EC50: < 10 nM

SMILES: O=C(Nc1ccc(Cl)c(-c2nccc3ncccc23)c1)c1ccc(N2CCCCS2(=O)=O)cc1Cl [Example 103]
- EC50: < 10 nM

SMILES: O=C(Nc1ccc(Cl)c(-c2nccc3ccccc23)c1)c1ccc(N2CCOCS2(=O)=O)cc1Cl [Example 104, 2-chloro-N-(4-chloro-3-(isoquinolin-1-yl)phenyl)-4-(3,3-dioxido-1,3,4-oxathiazinan-4-yl)benzamide]
- EC50: < 10 nM

SMILES: O=C(Nc1ccc(Cl)c(-c2nccc3ncccc23)c1)c1ccc(N2CCOCS2(=O)=O)cc1Cl [Example 105, 2-chloro-N-(4-chloro-3-(1,6-naphthyridin-5-yl)phenyl)-4-(3,3-dioxido-1,3,4-oxathiazinan-4-yl)benzamide]
- EC50: < 10 nM

SMILES: O=C(Nc1ccc(Cl)c(-c2ccc3ncccc3n2)c1)c1ccc(N2CCOCS2(=O)=O)cc1Cl [Example 106, 2-chloro-N-(4-chloro-3-(1,5-naphthyridin-2-yl)phenyl)-4-(3,3-dioxido-1,3,4-oxathiazinan-4-yl)benzamide]
- EC50: < 10 nM

SMILES: O=C(Nc1ccc(Cl)c(-c2ccc3cnccc3n2)c1)c1ccc(N2CCOCS2(=O)=O)cc1Cl [Example 107, 2-chloro-N-(4-chloro-3-(1,6-naphthyridin-2-yl)phenyl)-4-(3,3-dioxido-1,3,4-oxathiazinan-4-yl)benzamide]
- EC50: < 10 nM

SMILES: O=C(Nc1ccc(Cl)c(-c2nccc3ccccc23)c1)c1ccc(N2CCOCS2(=O)=O)cc1 [Example 108, N-(4-chloro-3-(isoquinolin-1-yl)phenyl)-4-(3,3-dioxido-1,3,4-oxathiazinan-4-yl)benzamide]
- EC50: 11000 nM

SMILES: O=C(Nc1ccc(Cl)c(-c2nccc3ncccc23)c1)c1ccc(N2CCOCS2(=O)=O)cc1 [Example 109, N-(4-chloro-3-(1,6-naphthyridin-5-yl)phenyl)-4-(3,3-dioxido-1,3,4-oxathiazinan-4-yl)benzamide]
- EC50: < 10 nM

SMILES: Cc1ccc(NC(=O)c2ccc(N3CCCS3(=O)=O)cc2Cl)cc1-c1nccc2ccccc12 [Example 111]
- EC50: < 10 nM

SMILES: O=C(Nc1ccc(Cl)c(-c2nccc3ncccc23)c1)c1ccc(N2CCCS2(=O)=O)cc1Cl [Example 112]
- EC50: < 10 nM

SMILES: O=C(Nc1ccc(Cl)c(-c2nccc3ncccc23)c1)c1ccc(N2CCCS2(=O)=O)c(Cl)c1 [Example 113]
- EC50: < 10 nM

SMILES: O=C(Nc1ccc(Cl)c(-c2nccc3ccccc23)c1)c1ccc(N2CCCS2(=O)=O)c(Cl)c1 [Example 114]
- EC50: < 10 nM

SMILES: O=C(Nc1ccc(Cl)c(-c2nccc3ccccc23)c1)c1ccc(N2CCCCS2(=O)=O)c(Cl)c1 [Example 115]
- EC50: < 10 nM

SMILES: O=C(Nc1ccc(Cl)c(-c2nccc3ncccc23)c1)c1ccc(N2CCOCS2(=O)=O)cc1F [Example 116, N-(4-chloro-3-(1,6-naphthyridin-5-yl)phenyl)-4-(3,3-dioxido-1,3,4-oxathiazinan-4-yl)-2-fluorobenzamide]
- EC50: < 10 nM

SMILES: O=C(Nc1ccc(Cl)c(-c2nccc3ccccc23)c1)c1ccc(N2CCOCS2(=O)=O)cc1F [Example 117, N-(4-chloro-3-(isoquinolin-1-yl)phenyl)-4-(3,3-dioxido-1,3,4-oxathiazinan-4-yl)-2-fluorobenzamide]
- EC50: 16000 nM

SMILES: O=C(Nc1ccc(Cl)c(NC(=O)c2ccccc2)c1)c1ccc(N2CCCS2(=O)=O)c(F)c1 [Example 118]
- EC50: < 10 nM

SMILES: O=C(Nc1ccc(Cl)c(NC(=O)c2cccnc2)c1)c1ccc(N2CCCS2(=O)=O)c(F)c1 [Example 119]
- EC50: < 10 nM

SMILES: O=C(Nc1cc(NC(=O)c2ccc(N3CCCS3(=O)=O)cc2Cl)ccc1Cl)c1cccc(Cl)c1 [Example 120]
- EC50: < 10 nM

SMILES: O=C(Nc1ccc(Cl)c(NC(=O)c2cccc(Cl)c2)c1)c1ccc(N2CCCS2(=O)=O)c(F)c1 [Example 121]
- EC50: < 10 nM

SMILES: O=C(Nc1cc(NC(=O)c2ccc(N3CCOCS3(=O)=O)cc2Cl)ccc1Cl)c1ccccc1 [Example 122, N-(3-benzamido-4-chlorophenyl)-2-chloro-4-(3,3-dioxido-1,3,4-oxathiazinan-4-yl)benzamide]
- EC50: < 10 nM

SMILES: O=C(Nc1ccc(Cl)c(-c2ccccn2)c1)c1ccc(N2CCOCS2(=O)=O)cc1F [Example 123, N-(4-chloro-3-(pyridin-2-yl)phenyl)-4-(3,3-dioxido-1,3,4-oxathiazinan-4-yl)-2-fluorobenzamide]
- EC50: < 10 nM

SMILES: O=C(Nc1cc(NC(=O)c2ccc(N3CCOCS3(=O)=O)cc2F)ccc1Cl)c1ccccc1 [Example 124, N-(3-benzamido-4-chlorophenyl)-4-(3,3-dioxido-1,3,4-oxathiazinan-4-yl)-2-fluorobenzamide]
- EC50: < 10 nM

SMILES: O=C(Nc1cc(NC(=O)c2ccc(N3CCOCS3(=O)=O)cc2Cl)ccc1Cl)c1cccc(F)c1 [Example 125, 2-chloro-N-(4-chloro-3-(3-fluorobenzamido)phenyl)-4-(3,3-dioxido-1,3,4-oxathiazinan-4-yl)benzamide]
- EC50: < 10 nM
